Usually Ki stands for the equilibrium dissociation constant of an inhibitor or competing ligand from its target.

Read-outs that look alike come from different tables or passages of the source.

The values that follow come from US6849657B2, “2-pyrrolidone derivatives as prostanoid agonists” (Syntex (U.S.A.) LLC, priority 2001, dated 2005).

One test has as its target rEP2 receptor (UniProt Q62928). The test can be described thus: Competitive binding assay of [3H]PGE2 to rEP2 receptor. Conditions: [3H]-PGE2 competitive binding, membranes of transfected COS-7 cells, pH 6.0, 45 minutes at 23° C.; read-out: EP2, Ki. As for the experimental part:
(§1) Competitive Binding Assay of [^3H]PGE2 to rEP1, rEP2, rEP3 and rEP4 Receptor
(§2) Stably transfected cells expressing EP3 were grown in F-12 media (GIBCO) supplemented with 10% heat inactivated certified Fetal Bovine Serum (GIBCO) and pelleted. Prostanoid receptor EP2 or EP4 cDNA corresponding to the full-length coding sequence was subcloned into the appropriate sites of the mammalian expresson vector pcDNA 3.1(+)/Zeo (Invitrogen). Transfection-scale quantities of the vector were prepared using the Qiagen Endo-Free Plasmid Maxi Kit and transfected into COS-7 cells using FuGene 6 (Roche Molecular) according to the manufacturer's instructions (Roche). COS-7 cells were grown in DMEM (GIBCO) supplemented with 10% heat inactivated certified Fetal Bovine Serum (GIBCO) and Gentamicin (GIBCO), and were harvested 72 hours after transfection. Cells were pelleted by centrifugation, washed with PBS (GIBCO), repelleted, then flash-frozen in dry-ice/Ethanol or used directly for membrane preparation.
(§3) All procedures for membrane preparation were performed at 4° C. Prostanoid receptor-transfected COS-7 cells or stably transfected CHO cells were homogenized in assay buffers (see recipe, below) using a Polytron homogenizer (Brinkman) and centrifuged at 48,000×g for 30 minutes. Pellets were resuspended in assay buffer and resuspended by sonication using a Branson sonifier. Protein concentration was determined using the BioRad DC Protein Assay following the manufacturer's directions and stored at −80° C.
Methods for competitive affinity binding assays of EP2, EP3 and EP4 were derived from those described in M. Abramovitz et al, “The utilization of recombinant prostanoid receptors to determine the affinities and selectivities of prostaglandins and related analogs” Biochimica et Biophysica Acta 1483 (2000) 285-293. Binding assays were performed in a final incubation volume of 0.2 mL in the following assay buffers: 20 mM HEPES, 1 mM EDTA, and 10 mM MgCl2 (pH 7.4) (EP3) or 10 mM MES, 10 mM MnCl2, and 1 mM EDTA_(pH to 6.0 with NaOH) (EP2 and EP4) and radioligand {2.25 nM (EP3) or 2.5 nM (EP2) [^3H]-PGE2 (200 Ci/mmol, NEN)}. Reactions were initiated by addition of membrane protein (approximately 50 ug/reaction for EP3, 100 ug for EP2 and EP4). Dimethylsulfoxide (Sigma) concentration was kept constant at 1% (v/v) in all incubations, and compounds were assayed at final concentrations of 100 uM-0.3 nM. Non-specific binding was determined in the presence of 10 µM of non-radioactive PGE2 (Cayman Chemical). Incubations were conducted for 60 minutes at 30° C. (EP3) or 45 minutes at 23° C. (EP2 and EP4). Incubations were terminated by rapid filtration through a 96-well Unifilter GF/B (Packard) (prewetted in 10 mM MES, 0.01% BSA, pH 6.0 for EP2) at 4° C. using a Filtermate 196 96-well semi-automated cell harvester (Packard). The filters were washed with 3-4 mL of wash buffer (20 mM HEPES pH 7.4 for EP3, 10 mM MES, 0.01% BSA, pH 6.0 for EP2 and EP4), dried for at least 1 hour at room temperature, and the residual radioactivity bound to the individual filters determined by scintillation counting with addition of 37.5 uL of Microscint 20 (Packard) using a Packard TopCount Microplate Scintillation Counter. Statistics of binding were determined using Prism v 3.0 software (GraphPad).

The next test deals with T1, rEP3 receptor (UniProt P34980).
T1 sequence (P34980 1-365): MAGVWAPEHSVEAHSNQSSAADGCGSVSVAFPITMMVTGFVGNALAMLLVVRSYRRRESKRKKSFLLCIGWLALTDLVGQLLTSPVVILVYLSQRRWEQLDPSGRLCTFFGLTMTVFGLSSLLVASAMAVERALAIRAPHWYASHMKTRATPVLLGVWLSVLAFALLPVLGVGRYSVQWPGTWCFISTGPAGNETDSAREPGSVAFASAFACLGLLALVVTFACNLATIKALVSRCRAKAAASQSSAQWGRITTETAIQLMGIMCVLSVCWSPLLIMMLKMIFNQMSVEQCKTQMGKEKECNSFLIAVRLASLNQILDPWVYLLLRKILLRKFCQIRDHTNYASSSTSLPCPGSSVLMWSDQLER
As to the kind of experiment: Competitive binding assay of [3H]PGE2 to rEP3 receptor. Conditions: [3H]-PGE2 competitive binding, membranes of stably transfected cells, pH 7.4, 60 minutes at 30° C.; read-out: EP3, Ki. The procedure:
as §1, §2, §3
Methods for competitive affinity binding assays of EP2, EP3 and EP4 were derived from those described in M. Abramovitz et al, “The utilization of recombinant prostanoid receptors to determine the affinities and selectivities of prostaglandins and related analogs” Biochimica et Biophysica Acta 1483 (2000) 285-293. Binding assays were performed in a final incubation volume of 0.2 mL in the following assay buffers: 20 mM HEPES, 1 mM EDTA, and 10 mM MgCl2 (pH 7.4) (EP3) or 10 mM MES, 10 mM MnCl2, and 1 mM EDTA_(pH to 6.0 with NaOH) (EP2 and EP4) and radioligand {2.25 nM (EP3) or 2.5 nM (EP2) [^3H]-PGE2 (200 Ci/mmol, NEN)}. […] Non-specific binding was determined in the presence of 10 µM of non-radioactive PGE2 (Cayman Chemical). […] The filters were washed with 3-4 mL of wash buffer (20 mM HEPES pH 7.4 for EP3, 10 mM MES, 0.01% BSA, pH 6.0 for EP2 and EP4), dried for at least 1 hour at room temperature, and the residual radioactivity bound to the individual filters determined by scintillation counting with addition of 37.5 uL of Microscint 20 (Packard) using a Packard TopCount Microplate Scintillation Counter. Statistics of binding were determined using Prism v 3.0 software (GraphPad).

Another test addresses rEP4 receptor (UniProt P43114). The test can be described thus: Competitive binding assay of [3H]PGE2 to rEP4 receptor. The procedure:
as §1, §2, §3
Reactions were initiated by addition of membrane protein (approximately 50 ug/reaction for EP3, 100 ug for EP2 and EP4). Dimethylsulfoxide (Sigma) concentration was kept constant at 1% (v/v) in all incubations, and compounds were assayed at final concentrations of 100 uM-0.3 nM. Non-specific binding was determined in the presence of 10 µM of non-radioactive PGE2 (Cayman Chemical). Incubations were conducted for 60 minutes at 30° C. (EP3) or 45 minutes at 23° C. (EP2 and EP4). […] The filters were washed with 3-4 mL of wash buffer (20 mM HEPES pH 7.4 for EP3, 10 mM MES, 0.01% BSA, pH 6.0 for EP2 and EP4), dried for at least 1 hour at room temperature, and the residual radioactivity bound to the individual filters determined by scintillation counting with addition of 37.5 uL of Microscint 20 (Packard) using a Packard TopCount Microplate Scintillation Counter. Statistics of binding were determined using Prism v 3.0 software (GraphPad).

Where [1] appears, read: [3H]-PGE2 competitive binding, membranes of transfected COS-7 cells, pH 6.0, 45 minutes at 23° C.; read-out: EP4, Ki.

Turning to `CCCCC[C@H](O)/C=C/[C@H]1CCC(=O)N1CCSCCCC(=O)O` [Compound 1, 4-[(2-{(2R)-2-[(1E,3S)-3-hydroxyoct-1-enyl]-5-oxopyrrolidin-1-yl}ethyl)thio]butanoic acid], the Ki at rEP2 receptor came to 1600 nM; at rEP3 receptor, 2600 nM; on rEP4 receptor (setting [1]), 5 nM.

For `CCCCC[C@H](O)/C=C/C1CCC(=O)N1OCCCCCC(=O)O` (stereo partly drawn) [Compound 28, 6-[2-((S)-(E)-3-Hydroxy-oct-1-enyl)-5-oxo-pyrrolidin-1-yloxy]-hexanoic acid], the Ki was above 10000 nM on rEP2 receptor, above 10000 nM at rEP3 receptor and 60 nM on rEP4 receptor (setting [1]).

With `O=C(O)CCCSCCN1C(=O)CC[C@@H]1CC[C@@H](O)c1cccc(Oc2cccc(F)c2)c1` [Compound 15, 4-[2-((S)-2-{(R)-3-[3-(3-Fluoro-phenoxy)-phenyl]-3-hydroxy-propyl}-5-oxo-pyrrolidin-1-yl)-ethylsulfanyl]-butyric Acid], the Ki at rEP2 receptor is 7800 nM; on rEP3 receptor, 49000 nM; on rEP4 receptor (setting [1]), 8 nM.

As for `O=C(O)COCCCCN1C(=O)CC[C@@H]1/C=C/[C@@H](O)Cc1cccc(C(F)(F)F)c1` [Compound 10, (4-{(R)-2-[(S)-(E)-3-hydroxy-4-(3-trifluoromethyl-phenyl)-but-1-enyl]-5-oxo-pyrrolidin-1-yl}-butoxy)-acetic acid], the Ki at rEP2 receptor was 66000 nM; on rEP3 receptor, above 10000 nM; on rEP4 receptor (read-out: EP4, Ki; [3H]-PGE2 competitive binding, membranes of transfected COS-7 cells, pH 6.0, 45 minutes at 23° C.), 7 nM.

`CCCCCC(O)/C=C/[C@H]1CCC(=O)N1C/C=C\COCC(=O)O` (stereo partly drawn) [Compound 8, {(Z)-4-[(R)-2-((E)-3-hydroxy-oct-1-enyl)-5-oxo-pyrrolidin-1-yl]-but-2-enyloxy}-acetic acid]: the Ki at rEP2 receptor was above 10000 nM.

As to `CCCCCC(C)(O)/C=C/[C@H]1CCC(=O)N1CCSCCCC(=O)O` (stereo partly drawn) [Compound 14, 4-{2-[(R)-2-((E)-3-hydroxy-3-methyl-oct-1-enyl)-5-oxo-pyrrolidin-1-yl]-ethylsulfanyl}-butyric acid], the results for the Ki at rEP2 receptor and on rEP4 receptor (setting [1]) were 18000 nM and 90 nM, respectively.
